Measured values taken from patent US20200397796A1, “METHODS OF TREATMENT OF CANCER COMPRISING CHK1 INHIBITORS” (SIERRA ONCOLOGY, INC., priority 2018, published 2020).

Experiments:
[1] = tested on: cryopreserved hepatocytes; assay: Rank order of stability in cryopreserved hepatocytes across species; assay type: in vitro ADME, human, mouse, rat, dog, minipig and monkey; conditions: 10 μM, up to 4 hours
Procedure: The formation of SRA737-related metabolites was determined in cryopreserved hepatocytes from human, mouse, rat, dog, minipig and monkey samples after incubation with SRA737 at a nominal concentration of 10 μM for up to 4 hours. […] In the human hepatocyte preparation, approximately 67% of the parent remained after 4 hours of incubation compared to 75% and 7% in the rat and minipig preparations, respectively. Eight human SRA737 metabolites were observed. All SRA737 metabolites formed by human hepatocytes were also formed by monkey hepatocytes. Six metabolites were present at equal or greater abundance in the monkey.

OVCAR3 model of HGSOC = assay: In vivo efficacy, OVCAR3 CDX model; design: species or system mouse; conditions: data not shown
Procedure: (§1) A program of in vivo efficacy studies was performed to assess the activity of SRA737 in combination with genotoxic chemotherapy and targeted agents, and as monotherapy.
(§2) One of these models also carried a MYCN amplification. A fourth HGSOC PDX model with partial resistance to PARPi was also sensitive to high dose SRA737 monotherapy.

MOLM-13 model of AML = assay: In vivo efficacy, MOLM-13 model; design: species or system mouse; conditions: data not shown
Procedure: as §1, §2

HT29 human colon cancer = assay: In vivo efficacy, HT29 xenograft model; design: species or system mouse; conditions: data not shown
Procedure: as §1, §2

[2] = GLP 28-day repeat oral dose toxicity and toxicokinetics, minipig; assay type: in vivo
Text: Reference source not found.6.

Calu6 human (NSCLC) = assay: In vivo efficacy, Calu6 xenograft model; design: species or system mouse; conditions: data not shown
Procedure: as §1, §2

SW620 mouse colon cancer = assay: In vivo efficacy, SW620 xenograft model; conditions: in combination with standard-dose gemcitabine; data not shown
Procedure: as §1, §2

[3] = tested on: HGSOC PDX model with partial resistance to PARPi; assay: In vivo efficacy, HGSOC PDX model with partial resistance to PARPi; design: species or system mouse; conditions: high dose SRA737 monotherapy
Procedure: as §1, §2

Single dose PK, monkey = assay type: in vivo
Procedure: The PK of SRA737 have been determined in the mouse, rat, dog and monkey following oral and IV administration (Table 3). […] An acceptable terminal elimination t1/2 was also observed in each species. […] The plasma protein binding of SRA737 at 1 and 10 μM was examined in mouse, minipig, monkey and human plasma using ultracentrifugation and in dog plasma (10 μM) using rapid equilibrium dialysis.

LL/2 (lung cancer) = assay: In vivo efficacy, LL/2 syngeneic model; design: species or system mouse; conditions: data not shown
Procedure: as §1, §2

[4] = tested on: CHK1 S296 autophosphorylation; assay: Gemcitabine induced CHK1 S296 autophosphorylation in HT29 tumor xenografts (western blotting); assay type: in vivo, mouse; conditions: oral, 24 hours following gemcitabine 100 mg/kg IV
Procedure: The effect of SRA737 on Gemcitabine induced CHK1 S296 autophosphorylation was assessed as described in Walton et al. (Oncotarget. 2016 Jan. 19; 7(3): 2329-2342), herein incorporated by reference for all it teaches. Briefly, mice bearing HT29 tumor xenografts were administered (i) vehicle control or (ii) gemcitabine (100 mg/kg in saline, IV) or (iii) a combination of SRA737 (12.5, 25, 50 or 100 mg/kg in DTPW, oral) and gemcitabine (100 mg/kg) with SRA737 administered 24 hours following gemcitabine administration (n=3 per time point per treatment). […] Exposure in the tumor was greater than 10-fold higher than in plasma. The circulating plasma concentration at this 24-hour timepoint corresponded to a free drug concentration of approximately 6 nM (2 ng/mL) based on plasma protein binding in mice of 94%.

[5] = in combination with standard-dose gemcitabine
[6] = in vivo, po, Minipig Female, 10 mg/kg/day (HNSTD), daily dosing for 28 days
[7] = in vivo, po, Minipig Female, 40 mg/kg/day, daily dosing for 28 days
[8] = in vivo, po, Minipig Female, 75 mg/kg/day, daily dosing for 28 days
[9] = in vivo, po, Minipig Male, 10 mg/kg/day (HNSTD), daily dosing for 28 days
[10] = in vivo, po, Minipig Male, 40 mg/kg/day, daily dosing for 28 days
[11] = in vivo, Monkey IV 1 mg/kg single dose
[12] = in vivo, Monkey oral 2 mg/kg single dose
[13] = in vivo, Monkey oral 10 mg/kg single dose

N#Cc1cnc(Nc2cc(NCC3CNCCO3)c(C(F)(F)F)cn2)cn1 (stereo not drawn) [SRA737, 5-[[4-[[morpholin-2-yl]methylamino]-5-(trifluoromethyl)-2-pyridyl]amino]pyrazine-2-carbonitrile]
rank order of stability from most stable to least stable [1]: rat≈mouse>monkey≈human>>dog>>minipig | single agent efficacy (OVCAR3 model of HGSOC; single agent): single agent efficacy | synergy (OVCAR3 model of HGSOC; with low-dose gemcitabine): Synergy | single agent efficacy (MOLM-13 model of AML): single agent efficacy | antitumor activity (HT29 human colon cancer; [5]): Significant, dose-dependent antitumor activity | synergy (HT29 human colon cancer; with irinotecan): Synergy | synergy (HT29 human colon cancer; with low-dose gemcitabine): Synergy | AUC(0-t) [2, 6]: 6560 ng·h/mL | Cmax [2, 6]: 515 ng/mL | half-life [2, 6]: 13.6 h | AUC(0-t) [2, 7]: 45500 ng·h/mL | Cmax [2, 7]: 2830 ng/mL | half-life [2, 7]: 14.3 h | AUC(0-t) [2, 8]: 97000 ng·h/mL | Cmax [2, 8]: 5340 ng/mL | half-life [2, 8]: 31.5 h | AUC(0-t) [2, 9]: 6480 ng·h/mL | Cmax [2, 9]: 622 ng/mL | half-life [2, 9]: 9.25 h | AUC(0-t) [2, 10]: 22200 ng·h/mL | Cmax at 28 days [2, 10]: 2070 ng/mL | half-life [2, 10]: 7.66 h | toxicological findings ([2]; minipig pivotal study, dose-dependent, reversible on cessation): bone marrow toxicity | antitumor activity (Calu6 human (NSCLC); [5]): Significant, dose-dependent antitumor activity | synergy (Calu6 human (NSCLC); with gemcitabine and carboplatin): Synergy | antitumor activity (SW620 mouse colon cancer): Significant, dose-dependent antitumor activity | sensitivity to SRA737 [3]: sensitive | Foral (Single dose PK, monkey; Monkey oral 2 mg/kg single dose): 90% | Foral (Single dose PK, monkey; Monkey oral 10 mg/kg single dose): 104% | AUC(0-t) (Single dose PK, monkey; [11]): 1520 ng·h/mL | half-life (Single dose PK, monkey; [11]): 5.3 h | AUC(0-t) (Single dose PK, monkey; [12]): 2730 ng·h/mL | Cmax (Single dose PK, monkey; [12]): 500 ng/mL | Tmax (Single dose PK, monkey; [12]): 1 to 2 h | half-life (Single dose PK, monkey; [12]): 5 h | AUC(0-t) (Single dose PK, monkey; [13]): 15800 ng·h/mL | Cmax (Single dose PK, monkey; [13]): 2640 ng/mL | Tmax (Single dose PK, monkey; [13]): 2 to 4 h | half-life (Single dose PK, monkey; [13]): 5.1 h | bioavailability (Single dose PK, monkey; in vivo, monkey, oral 2 and 10 mg/kg, read-out: absolute oral bioavailability (% F)): 90 to 104% | single agent efficacy (LL/2 (lung cancer)): single agent efficacy | SRA737 doses at which inhibition of pS296 Chk1 was observed [4]: greater than or equal to 12.5 mg/kg
